ChEMBL document CHEMBL1146926, “Fluorescent non-imidazole histamine H3 receptor ligands with nanomolar affinities” (Bioorg Med Chem Lett, 2006)

Target: Histamine H3 receptor (Homo sapiens, UniProt Q9Y5N1)
Test: Displacement of [125I]iodoproxyfan from human histamine H3 receptor expressed in CHOK1 cells
Assay type: cell-based, CHO-K1

Chain of Histamine H3 receptor (Q9Y5N1 whole entry): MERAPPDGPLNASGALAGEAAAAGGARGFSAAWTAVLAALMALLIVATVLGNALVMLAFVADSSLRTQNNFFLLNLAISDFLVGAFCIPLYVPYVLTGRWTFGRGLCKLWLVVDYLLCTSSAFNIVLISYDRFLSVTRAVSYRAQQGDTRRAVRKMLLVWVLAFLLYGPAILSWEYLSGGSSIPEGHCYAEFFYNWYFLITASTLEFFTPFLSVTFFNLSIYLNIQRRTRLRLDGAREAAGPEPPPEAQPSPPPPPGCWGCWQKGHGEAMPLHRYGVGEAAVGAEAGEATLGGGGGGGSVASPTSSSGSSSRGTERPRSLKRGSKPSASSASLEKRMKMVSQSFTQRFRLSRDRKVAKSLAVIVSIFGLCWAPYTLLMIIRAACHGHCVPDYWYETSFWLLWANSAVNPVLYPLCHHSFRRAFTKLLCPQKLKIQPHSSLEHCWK

| SMILES | Ki |
| --- | --- |
| O=[N+]([O-])c1ccc(NCCCCN2CCCCC2)c2nonc12 | 170 nM |
| O=[N+]([O-])c1ccc(NCCCCCN2CCCCC2)c2nonc12 | 11 nM |
| N#Cc1c2ccccc2cn1CCCCCCN1CCCCC1 | 31 nM |

Continued, values first:

| Ki | SMILES |
| --- | --- |
| 351 nM | N#Cc1c2ccccc2cn1CCCN1CCCCC1 |
| 178 nM | N#Cc1c2ccccc2cn1CCCCN1CCCCC1 |
| 31 nM | N#Cc1c2ccccc2cn1CCCCCN1CCCCC1 |
